Results on 16 compounds are retold here after US8193189B2, “Quinoxaline derivatives as tyrosine kinase activity inhibitors” (Novartis AG, priority 2007, dated 2012).

The subject of experiment [1] is JAK/STAT pathway (JAK1/JAK2-dependent nuclear translocation of STAT1-GFP). Kind of experiment: Inhibition of the JAK/STAT pathway: IFN-γ stimulated nuclear translocation of STAT1-GFP in HT1080 fibrosarcoma cells. In kind it is cell-based. As to conditions: Homo sapiens, HT-1080; HT1080 STAT1-GFP cells, 100 ng/ml IFN-γ 2 hours, compound added 30 min before; read-out: STAT1translo IC50. The source says: The medium-throughput (96-well format), robust and reproducible cellular assay can be routinely used to assess the functional activation of Janus Kinases (JAKs), based on the nuclear translocation of their substrate, Signal Transducer and Activator of Transcription (STAT). Nuclear translocation can be monitored in HT1080 fibrosarcoma cells stably transfected with STAT1 fused to Green Fluorescence Protein (GFP). Stimulation with interferon-γ (IFN-γ) results in JAK1/JAK2-dependent nuclear translocation of STAT1-GFP that can be quantified using the Cellomics Cyto/NucTrans software package. This assay may be used to provide an assessment of the nuclear-cytoplasmic differential (NCD) of GFP-STAT1 using Hoechst dye to define the boundaries of the nucleus.
Compounds can be dissolved in DMSO to a final stock concentration of 10 mM and stored as aliquots at 4° C. Compounds may be pre-diluted in 100% DMSO at 10 mM, 3 mM 1 mM, 0.3 mM, 0.1 mM, 0.03 mM, 0.01 mM and 0.003 mM. Subsequently, compounds may be diluted in medium and added in 50 μl to the cells. The final compound concentrations tested may be 10 μM, 3 μM 1 μM, 0.3 μM, 0.1 μM, 0.03 μM, 0.01 μM and 0.003 μM and the final DMSO concentration can be 0.1%.
The plates may then be washed once in PBS, and 200 μl PBS finally added per well. The plates, being finally covered with a black adhesive, may be either read directly or stored at 4° C. for later imaging. Where appropriate, the compounds may be added 30 min before stimulation with IFN-γ.
The plates can be read on a Cellomics® ArrayscanII automated fluorescence microscope plate reader equipped with a Mercury-Xenon white light illumination source and a Zeiss Axiovert inverted microscope, using the XF100 dichroic/emission filter cube and matching excitation filters, 10× magnification, and a 0.3 numerical aperture objective. Image acquisition and analysis can be performed using a customized protocol based on the ‘NuclearTranslocation’ Bioapplication (for details, see Appendices). For each well, multiple images (fields) can be acquired until a minimum of 1000 cells are counted using two 2 channels: Channel 1 (Hoechst)=focus+nuclear mask, Channel 2 (GFP)=signal quantification in mask areas as outlined below.
Nuclei may be first identified based on the Hoechst staining and a mask generated for each nucleus that then serves as a template to generate a circle (eroded inwards by 1 pixel) and a 3 pixel-wide collar-like ring (off-set outwards by 1 pixel), in which the nuclear and cytoplasmic intensity of GFP, respectively, are quantified in the corresponding channel. High content analysis yields numerous measurements per cell and the GPF intensity differential between the nuclear and the cytoplasmic masks may be chosen as a measure of sub-cellular GFP-STAT1 relocation. The resulting values may be averaged for all cells in the well to return a single measurement plus standard deviation.

In the next experiment the target is T1, GST-JAK2(808-1132) (Homo sapiens, UniProt O60674).
T1 construct: GST-JAK2(808-1132); purchased Invitrogen (Carlsbad, USA) #4288
Kind of experiment: EPK JAK-family kinases profiling assay (Caliper mobility shift), JAK2. In kind it is biochemical. As to conditions: ATP 20 μM, 1.8 nM kinase. In outline: (§1)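 Turnover was read as substrate/product ratio after mobility-shift capillary-like separation of each reaction, run for 60 min at 30 °C with GST-tagged kinase domain, labelled peptide and ATP, and terminated with EDTA stop buffer.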

The target in a further experiment is T2, GST-JAK3(811-1124) (Homo sapiens, UniProt P52333).
T2 construct: GST-JAK3(811-1124); made in house
The experiment can be described thus: EPK JAK-family kinases profiling assay (Caliper mobility shift), JAK3. The conditions noted are these: ATP 80 μM, 6 nM kinase. In kind it is biochemical. In outline:
as §1

For the next experiment, the target named is T3, GST-JAK1(866-1154) (Homo sapiens, UniProt P23458).
T3 construct: GST-JAK1(866-1154); made in house
The experiment can be described thus: EPK JAK-family kinases profiling assay (Caliper mobility shift), JAK1. In kind it is biochemical. The conditions noted are these: ATP 40 μM, 50 nM kinase. In outline: as §1

T1 sequence (O60674 808-1132): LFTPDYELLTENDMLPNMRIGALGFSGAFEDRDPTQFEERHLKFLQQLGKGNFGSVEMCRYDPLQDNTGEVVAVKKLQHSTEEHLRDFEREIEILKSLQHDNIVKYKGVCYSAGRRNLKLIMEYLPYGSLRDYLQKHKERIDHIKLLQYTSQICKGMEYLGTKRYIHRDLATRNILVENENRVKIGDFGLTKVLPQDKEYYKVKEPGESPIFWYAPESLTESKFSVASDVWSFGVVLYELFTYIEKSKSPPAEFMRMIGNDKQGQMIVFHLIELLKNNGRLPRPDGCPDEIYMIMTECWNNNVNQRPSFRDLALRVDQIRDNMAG
T3 sequence (P23458 866-1154): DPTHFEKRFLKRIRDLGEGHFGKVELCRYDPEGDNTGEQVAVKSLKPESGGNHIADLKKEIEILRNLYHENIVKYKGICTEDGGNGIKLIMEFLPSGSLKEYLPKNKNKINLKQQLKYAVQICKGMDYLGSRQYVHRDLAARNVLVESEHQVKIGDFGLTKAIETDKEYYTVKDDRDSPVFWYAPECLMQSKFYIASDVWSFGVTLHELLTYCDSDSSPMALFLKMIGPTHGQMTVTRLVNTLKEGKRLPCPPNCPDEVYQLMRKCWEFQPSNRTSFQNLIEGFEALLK
T2 sequence (P52333 811-1124): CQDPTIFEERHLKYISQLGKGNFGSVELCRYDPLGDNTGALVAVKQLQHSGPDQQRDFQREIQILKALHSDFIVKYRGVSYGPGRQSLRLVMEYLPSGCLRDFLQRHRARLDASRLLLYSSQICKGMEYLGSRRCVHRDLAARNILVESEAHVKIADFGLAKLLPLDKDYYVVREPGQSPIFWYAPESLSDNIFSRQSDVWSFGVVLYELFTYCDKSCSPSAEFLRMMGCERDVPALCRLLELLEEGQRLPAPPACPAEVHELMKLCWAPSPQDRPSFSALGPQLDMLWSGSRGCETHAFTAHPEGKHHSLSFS

Regarding `Cc1cc(-c2cnc3cccc(-c4ccc(CN5CCOCC5)c(F)c4)c3n2)ccc1C(=O)N1CCOCC1` [Example 58, {4-[8-(3-Fluoro-4-morpholin-4-ylmethyl-phenyl)-quinoxalin-2-yl]-2-methyl-phenyl}-morpholin-4-yl-methanone], the IC50 – broadly, the concentration that inhibits the measured activity by half – was determined as 0.221 µM in experiment [1], 0.011 µM on GST-JAK2(808-1132), 0.32 µM on GST-JAK3(811-1124) and 0.09 µM on GST-JAK1(866-1154).

In the case of `Cc1cc(-c2cnc3cccc(-c4cc(F)c(CN5CCOCC5)c(F)c4)c3n2)ccc1C(=O)N1CCOCC1` [Example 59, {4-[8-(3,5-Difluoro-4-morpholin-4-ylmethyl-phenyl)-quinoxalin-2-yl]-2-methyl-phenyl}-morpholin-4-yl-methanone], the IC50 in experiment [1] came to 0.635 µM; on GST-JAK2(808-1132), 0.02 µM; on GST-JAK3(811-1124), 1.95 µM; on GST-JAK1(866-1154) it was 0.52 µM.

On to `Cc1cc(-c2cnc3cccc(-c4ccc(CN5CCS(=O)(=O)CC5)c(Cl)c4)c3n2)ccc1C(=O)N1CCOCC1` [Example 61, (4-{8-[3-Chloro-4-(1,1-dioxido-thiomorpholin-4-ylmethyl)-phenyl]-quinoxalin-2-yl}-2-methyl-phenyl)-morpholin-4-yl-methanone], for which the IC50 worked out at 0.235 µM in experiment [1], 0.015 µM on GST-JAK2(808-1132), 1.4 µM on GST-JAK3(811-1124) and 0.165 µM at GST-JAK1(866-1154).

Turning to `Cc1cc(-c2cnc3cccc(-c4ccc(CN5CCS(=O)(=O)CC5)c(F)c4)c3n2)ccc1C(=O)N1CCOCC1` [Example 62, (4-{8-[4-(1,1-Dioxido-thiomorpholin-4-ylmethyl)-3-fluoro-phenyl]-quinoxalin-2-yl}-2-methyl-phenyl)-morpholin-4-yl-methanone], the IC50 in experiment [1] was 0.082 µM; on GST-JAK2(808-1132), 0.0057 µM; on GST-JAK3(811-1124), 0.33 µM; at GST-JAK1(866-1154), 0.0445 µM.

Turning to `Cc1cc(-c2cnc3cccc(-c4ccc(CN5CCOCC5)c(F)c4)c3n2)ccc1C(=O)N1CCCC1` [Example 65, {4-[8-(3-Fluoro-4-morpholin-4-ylmethyl-phenyl)-quinoxalin-2-yl]-2-methyl-phenyl}-pyrrolidin-1-yl-methanone], the IC50 came to 2.19 µM in experiment [1], 0.0155 µM at GST-JAK2(808-1132), 0.86 µM at GST-JAK3(811-1124) and 0.24 µM on GST-JAK1(866-1154).

Regarding `Cc1cc(-c2cnc3cccc(-c4cc(F)c(CN5CCOCC5)c(F)c4)c3n2)ccc1C(=O)N1CCCC1` [Example 66, {4-[8-(3,5-Difluoro-4-morpholin-4-ylmethyl-phenyl)-quinoxalin-2-yl]-2-methyl-phenyl}-pyrrolidin-1-yl-methanone], the IC50 was determined as 1 µM in experiment [1], 0.00605 µM at GST-JAK2(808-1132), 0.25 µM on GST-JAK3(811-1124) and 0.14 µM on GST-JAK1(866-1154).

With `Cc1cc(-c2cnc3cccc(-c4ccc(CN5CCS(=O)(=O)CC5)c(Cl)c4)c3n2)ccc1C(=O)N1CCCC1` [Example 67, (4-{8-[3-Chloro-4-(1,1-dioxido-thiomorpholin-4-ylmethyl)-phenyl]-quinoxalin-2-yl}-2-methyl-phenyl)-pyrrolidin-1-yl-methanone], the IC50 was 0.475 µM in experiment [1], under 0.003 µM on GST-JAK2(808-1132), 0.405 µM at GST-JAK3(811-1124) and 0.0965 µM at GST-JAK1(866-1154).

For the compound `Cc1cc(-c2cnc3cccc(-c4ccc(C(=O)N5CCCC5)c(C)c4)c3n2)ccc1C(=O)N1CCCC1` [Example 68, (2-Methyl-4-{3-[3-methyl-4-(pyrrolidine-1-carbonyl)-phenyl]-quinoxalin-5-yl}-phenyl)-pyrrolidin-1-yl-methanone], the IC50 in experiment [1] is 4.89 µM; at GST-JAK2(808-1132), 0.109 µM; on GST-JAK3(811-1124), 6.85 µM; on GST-JAK1(866-1154) it was 2.3 µM.

`Cc1cc(-c2cnc3cccc(-c4ccc(CC(=O)N5CCS(=O)(=O)CC5)c(F)c4)c3n2)ccc1CN1CCOCC1` [Example 69, 1-(1,1-Dioxido-thiomorpholin-4-yl)-2-{2-fluoro-4-[3-(3-methyl-4-morpholin-4-ylmethyl-phenyl)-quinoxalin-5-yl]-phenyl}-ethanone]: the IC50 is 0.53 µM in experiment [1], 0.0067 µM at GST-JAK2(808-1132), 0.89 µM at GST-JAK3(811-1124) and 0.075 µM on GST-JAK1(866-1154).

For the compound `Cc1cc(-c2cnc3cccc(-c4ccc(CC(=O)N5CCS(=O)(=O)CC5)c(F)c4)c3n2)ccc1Cn1ccnc1` [Example 72, 1-(1,1-Dioxido-thiomorpholin-4-yl)-2-{2-fluoro-4-[3-(4-imidazol-1-ylmethyl-3-methyl-phenyl)-quinoxalin-5-yl]-phenyl}-ethanone], the IC50 stood at 1.11 µM in experiment [1], 0.0057 µM at GST-JAK2(808-1132), 0.67 µM on GST-JAK3(811-1124) and 0.11 µM at GST-JAK1(866-1154).

With `O=C(c1ccc(-c2cccc3ncc(-c4ccc(OCCCN5CCOCC5)cc4)nc23)cc1F)N1CCS(=O)(=O)CC1` [Example 73, (1,1-Dioxido-thiomorpholin-4-yl)-(2-fluoro-4-{3-[4-(3-morpholin-4-yl-propoxy)-phenyl]-quinoxalin-5-yl}-phenyl)-methanone], the IC50 is over 10 µM in experiment [1], 0.028 µM at GST-JAK2(808-1132), 0.37 µM on GST-JAK3(811-1124) and 0.19 µM at GST-JAK1(866-1154).

For `O=C(Cc1ccc(-c2cccc3ncc(-c4ccc(OCCCN5CCOCC5)cc4)nc23)cc1)N1CCOCC1` [Example 74, 1-Morpholin-4-yl-2-(4-{3-[4-(3-morpholin-4-yl-propoxy)-phenyl]-quinoxalin-5-yl}-phenyl)-ethanone], the IC50 in experiment [1] amounted to 2.61 µM; on GST-JAK2(808-1132), 0.025 µM; on GST-JAK3(811-1124), 1.3 µM; on GST-JAK1(866-1154) it was 0.31 µM.

In the case of `O=C(c1ccc(-c2cccc3ncc(-c4ccc(OCCCN5CCOCC5)cc4)nc23)cc1F)N1CCOCC1` [Example 75, (2-Fluoro-4-{3-[4-(3-morpholin-4-yl-propoxy)-phenyl]-quinoxalin-5-yl}-phenyl)-morpholin-4-yl-methanone], the IC50 in experiment [1] is over 10 µM; on GST-JAK2(808-1132), 0.034 µM; on GST-JAK3(811-1124) it was 1.7 µM; on GST-JAK1(866-1154) it was 0.41 µM.

For the compound `Cc1cc(-c2cnc3cccc(-c4ccc(CC(=O)N5CCOCC5)c(F)c4)c3n2)ccc1OCCCN1CCOCC1` [Example 76, 2-(2-Fluoro-4-{3-[3-methyl-4-(3-morpholin-4-yl-propoxy)-phenyl]-quinoxalin-5-yl}-phenyl)-1-morpholin-4-yl-ethanone], the IC50 in experiment [1] is 5.99 µM; at GST-JAK2(808-1132), 0.0595 µM; on GST-JAK3(811-1124), 4.1 µM; at GST-JAK1(866-1154), 0.69 µM.

For the compound `CCN1CCN(C(=O)c2ccc(-c3cnc4cccc(-c5ccc(C(C)(C)N6CCOCC6)c(C)c5)c4n3)cc2C)CC1` [Example 80, (4-Ethyl-piperazin-1-yl)-(2-methyl-4-{8-[3-methyl-4-(1-methyl-1-morpholin-4-yl-ethyl)-phenyl]-quinoxalin-2-yl}-phenyl)-methanone], the IC50 came to 1.55 µM in experiment [1], 0.075 µM on GST-JAK2(808-1132), 4.55 µM on GST-JAK3(811-1124) and 3.8 µM on GST-JAK1(866-1154).

As for `CCN1CCN(C(=O)c2ccc(-c3cnc4cccc(-c5ccc(C(C)(C)N6CCS(=O)(=O)CC6)c(C)c5)c4n3)cc2C)CC1` [Example 81, [4-(8-{4-[1-(1,1-Dioxido-thiomorpholin-4-yl)-1-methyl-ethyl]-3-methyl-phenyl}-quinoxalin-2-yl)-2-methyl-phenyl]-(4-ethyl-piperazin-1-yl)-methanone], the IC50 in experiment [1] came out at 0.389 µM; at GST-JAK2(808-1132), 0.0165 µM; at GST-JAK3(811-1124) it was 0.78 µM; on GST-JAK1(866-1154) it was 1.15 µM.
